Activity calls are given as the source filed them. How the calls were made is not given here.
Experiments:
Test in all cases: kinase panel binding selectivity, selectivity assay, biochemical, KINOMEscan (AID 1982)
[1] = biological target: Uncharacterized serine/threonine-protein kinase SBK3 (Homo sapiens) (UniProt P0C264); details: KINOMEscan 353-kinase binding panel, qPCR; SgK110; at 10 µM; active compounds read low
[2] = biological target: ALK tyrosine kinase receptor (Homo sapiens) (UniProt Q9UM73); details: KINOMEscan 353-kinase binding panel, qPCR, at 10 µM, active compounds read low
[3] = system: TLK1; details: KINOMEscan 353-kinase binding panel, qPCR, at 10 µM, active compounds read low
[4] = system: GAK; details: KINOMEscan 353-kinase binding panel, qPCR, at 10 µM, active compounds read low
[5] = system: DRAK2; details: KINOMEscan 353-kinase binding panel, qPCR, at 10 µM, active compounds read low
[6] = system: DMPK2; details: KINOMEscan 353-kinase binding panel, qPCR, at 10 µM, active compounds read low
[7] = system: EPHA5; details: KINOMEscan 353-kinase binding panel, qPCR, at 10 µM, active compounds read low
[8] = biological target: Tyrosine-protein kinase Yes (Homo sapiens) (UniProt P07947); details: KINOMEscan 353-kinase binding panel, qPCR, at 10 µM, active compounds read low
[9] = system: RPS6KA1(Kin.Dom.1); details: KINOMEscan 353-kinase binding panel, qPCR, at 10 µM, active compounds read low
[10] = biological target: Mitogen-activated protein kinase kinase kinase kinase 5 (Homo sapiens) (UniProt Q9Y4K4); details: KINOMEscan 353-kinase binding panel, qPCR; MAP4K5; at 10 µM; active compounds read low
[11] = biological target: Serine/threonine-protein kinase MARK2 (Homo sapiens) (UniProt Q7KZI7); details: KINOMEscan 353-kinase binding panel, qPCR, at 10 µM, active compounds read low
[12] = system: HIPK1; details: KINOMEscan 353-kinase binding panel, qPCR, at 10 µM, active compounds read low
[13] = biological target: Calcium/calmodulin-dependent protein kinase type 1 (Homo sapiens) (UniProt Q14012); details: KINOMEscan 353-kinase binding panel, qPCR; CAMK1; at 10 µM; active compounds read low
[14] = biological target: Phosphatidylinositol 5-phosphate 4-kinase type-2 beta (Homo sapiens) (UniProt P78356); details: KINOMEscan 353-kinase binding panel, qPCR; PIP5K2B; at 10 µM; active compounds read low
[15] = biological target: Tyrosine-protein kinase Fyn (Homo sapiens) (UniProt P06241); details: KINOMEscan 353-kinase binding panel, qPCR, at 10 µM, active compounds read low
[16] = biological target: Serine/threonine-protein kinase pim-1 (Homo sapiens) (UniProt P11309); details: KINOMEscan 353-kinase binding panel, qPCR; PIM1; at 10 µM; active compounds read low
[17] = biological target: Dual specificity protein kinase CLK1 (Homo sapiens) (UniProt P49759); details: KINOMEscan 353-kinase binding panel, qPCR, at 10 µM, active compounds read low
[18] = system: MARK1; details: KINOMEscan 353-kinase binding panel, qPCR, at 10 µM, active compounds read low
[19] = biological target: Mitogen-activated protein kinase 14 (Homo sapiens) (UniProt Q16539); details: KINOMEscan 353-kinase binding panel, qPCR; p38-alpha; at 10 µM; active compounds read low
[20] = system: RIOK3; details: KINOMEscan 353-kinase binding panel, qPCR, at 10 µM, active compounds read low
[21] = system: ACVRL1; details: KINOMEscan 353-kinase binding panel, qPCR, at 10 µM, active compounds read low
[22] = biological target: Serine/threonine-protein kinase N2 (Homo sapiens) (UniProt Q16513); details: KINOMEscan 353-kinase binding panel, qPCR; PKN2; at 10 µM; active compounds read low
[23] = biological target: Mitogen-activated protein kinase 12 (Homo sapiens) (UniProt P53778); details: KINOMEscan 353-kinase binding panel, qPCR; p38-gamma; at 10 µM; active compounds read low
[24] = system: PIP5K1A; details: KINOMEscan 353-kinase binding panel, qPCR, at 10 µM, active compounds read low
[25] = system: CAMK1G; details: KINOMEscan 353-kinase binding panel, qPCR, at 10 µM, active compounds read low
[26] = biological target: Serine/threonine-protein kinase 33 (Homo sapiens) (UniProt Q9BYT3); details: KINOMEscan 353-kinase binding panel, qPCR; STK33; at 10 µM; active compounds read low
[27] = system: JAK1(Kin.Dom.2); details: KINOMEscan 353-kinase binding panel, qPCR, at 10 µM, active compounds read low
[28] = system: MLCK; details: KINOMEscan 353-kinase binding panel, qPCR, at 10 µM, active compounds read low
[29] = biological target: RAC-gamma serine/threonine-protein kinase (Homo sapiens) (UniProt Q9Y243); details: KINOMEscan 353-kinase binding panel, qPCR; AKT3; at 10 µM; active compounds read low
[30] = system: MAP3K4; details: KINOMEscan 353-kinase binding panel, qPCR, at 10 µM, active compounds read low
[31] = biological target: Tyrosine-protein kinase Fer (Homo sapiens) (UniProt P16591); details: KINOMEscan 353-kinase binding panel, qPCR, at 10 µM, active compounds read low
[32] = biological target: Serine/threonine-protein kinase 3 (Homo sapiens) (UniProt Q13188); details: KINOMEscan 353-kinase binding panel, qPCR; MST2; at 10 µM; active compounds read low
[33] = system: RPS6KA6(Kin.Dom.1); details: KINOMEscan 353-kinase binding panel, qPCR, at 10 µM, active compounds read low
[34] = system: SgK085; details: KINOMEscan 353-kinase binding panel, qPCR, at 10 µM, active compounds read low
[35] = biological target: Calcium/calmodulin-dependent protein kinase kinase 2 (Homo sapiens) (UniProt Q96RR4); details: KINOMEscan 353-kinase binding panel, qPCR; CAMKK2; at 10 µM; active compounds read low

Phosphatidylinositol 5-phosphate 4-kinase type-2 beta (Homo sapiens), sequence (P78356 whole entry, looked up): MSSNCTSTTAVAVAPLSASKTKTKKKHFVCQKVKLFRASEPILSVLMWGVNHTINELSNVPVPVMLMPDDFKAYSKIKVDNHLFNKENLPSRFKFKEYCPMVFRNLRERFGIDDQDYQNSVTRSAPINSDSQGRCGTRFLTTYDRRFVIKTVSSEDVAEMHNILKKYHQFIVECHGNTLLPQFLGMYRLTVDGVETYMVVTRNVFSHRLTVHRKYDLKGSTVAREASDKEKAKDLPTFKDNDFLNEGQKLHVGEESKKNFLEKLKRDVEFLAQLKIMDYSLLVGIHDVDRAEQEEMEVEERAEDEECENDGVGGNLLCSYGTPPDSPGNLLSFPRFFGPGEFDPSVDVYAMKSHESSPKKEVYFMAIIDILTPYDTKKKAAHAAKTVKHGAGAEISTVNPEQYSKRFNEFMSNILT
ALK tyrosine kinase receptor (Homo sapiens), sequence (Q9UM73 whole entry, looked up): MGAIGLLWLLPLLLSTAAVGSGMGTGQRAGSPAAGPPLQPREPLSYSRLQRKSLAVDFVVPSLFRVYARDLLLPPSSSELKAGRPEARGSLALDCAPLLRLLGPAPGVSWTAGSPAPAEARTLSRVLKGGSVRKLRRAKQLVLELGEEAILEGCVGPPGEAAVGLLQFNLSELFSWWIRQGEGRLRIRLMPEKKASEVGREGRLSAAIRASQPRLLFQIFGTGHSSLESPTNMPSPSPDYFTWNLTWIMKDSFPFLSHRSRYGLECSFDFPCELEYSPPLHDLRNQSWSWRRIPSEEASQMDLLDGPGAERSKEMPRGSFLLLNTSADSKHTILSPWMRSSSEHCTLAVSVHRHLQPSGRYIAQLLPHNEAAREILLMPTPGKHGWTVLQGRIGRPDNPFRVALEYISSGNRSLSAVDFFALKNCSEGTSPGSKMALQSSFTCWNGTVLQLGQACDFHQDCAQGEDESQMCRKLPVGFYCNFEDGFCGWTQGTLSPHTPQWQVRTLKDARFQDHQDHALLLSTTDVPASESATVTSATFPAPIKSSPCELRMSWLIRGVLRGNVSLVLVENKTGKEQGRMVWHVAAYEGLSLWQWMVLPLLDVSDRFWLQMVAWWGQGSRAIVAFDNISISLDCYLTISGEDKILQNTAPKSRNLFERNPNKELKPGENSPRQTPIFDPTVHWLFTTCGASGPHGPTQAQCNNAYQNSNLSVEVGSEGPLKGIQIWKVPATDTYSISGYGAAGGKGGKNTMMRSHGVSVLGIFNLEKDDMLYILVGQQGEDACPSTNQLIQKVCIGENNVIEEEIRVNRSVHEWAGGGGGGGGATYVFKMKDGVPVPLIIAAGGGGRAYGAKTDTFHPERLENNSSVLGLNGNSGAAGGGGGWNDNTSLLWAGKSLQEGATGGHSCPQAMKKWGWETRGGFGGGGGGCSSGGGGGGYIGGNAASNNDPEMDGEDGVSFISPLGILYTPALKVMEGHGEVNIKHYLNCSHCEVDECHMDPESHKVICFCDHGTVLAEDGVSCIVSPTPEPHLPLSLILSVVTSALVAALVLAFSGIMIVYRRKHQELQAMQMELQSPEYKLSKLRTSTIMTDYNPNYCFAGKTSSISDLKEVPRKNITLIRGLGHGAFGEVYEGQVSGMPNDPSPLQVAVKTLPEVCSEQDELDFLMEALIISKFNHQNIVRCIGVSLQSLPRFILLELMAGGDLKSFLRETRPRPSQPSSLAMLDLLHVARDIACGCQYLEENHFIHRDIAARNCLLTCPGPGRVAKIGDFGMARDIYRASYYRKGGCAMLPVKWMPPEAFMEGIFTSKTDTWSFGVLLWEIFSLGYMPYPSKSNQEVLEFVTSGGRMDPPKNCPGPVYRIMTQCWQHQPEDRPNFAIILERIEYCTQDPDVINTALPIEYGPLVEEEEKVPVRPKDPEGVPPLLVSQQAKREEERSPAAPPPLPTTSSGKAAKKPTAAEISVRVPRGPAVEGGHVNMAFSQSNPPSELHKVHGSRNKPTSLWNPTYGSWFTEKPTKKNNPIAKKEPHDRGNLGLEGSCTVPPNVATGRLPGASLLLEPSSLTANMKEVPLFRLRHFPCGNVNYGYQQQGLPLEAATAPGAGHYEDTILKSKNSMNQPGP
Calcium/calmodulin-dependent protein kinase type 1 (Homo sapiens), sequence (Q14012 whole entry, looked up): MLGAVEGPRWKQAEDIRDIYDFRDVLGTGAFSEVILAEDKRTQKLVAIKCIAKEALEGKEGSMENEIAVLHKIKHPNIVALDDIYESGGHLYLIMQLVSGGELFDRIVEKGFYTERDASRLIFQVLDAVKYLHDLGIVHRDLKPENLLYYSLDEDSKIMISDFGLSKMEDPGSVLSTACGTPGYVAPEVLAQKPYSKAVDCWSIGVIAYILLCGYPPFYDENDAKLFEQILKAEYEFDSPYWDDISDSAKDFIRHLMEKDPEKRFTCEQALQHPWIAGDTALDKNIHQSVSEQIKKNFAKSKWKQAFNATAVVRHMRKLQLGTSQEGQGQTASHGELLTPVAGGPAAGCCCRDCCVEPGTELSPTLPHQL
Tyrosine-protein kinase Fer (Homo sapiens), sequence (P16591 whole entry, looked up): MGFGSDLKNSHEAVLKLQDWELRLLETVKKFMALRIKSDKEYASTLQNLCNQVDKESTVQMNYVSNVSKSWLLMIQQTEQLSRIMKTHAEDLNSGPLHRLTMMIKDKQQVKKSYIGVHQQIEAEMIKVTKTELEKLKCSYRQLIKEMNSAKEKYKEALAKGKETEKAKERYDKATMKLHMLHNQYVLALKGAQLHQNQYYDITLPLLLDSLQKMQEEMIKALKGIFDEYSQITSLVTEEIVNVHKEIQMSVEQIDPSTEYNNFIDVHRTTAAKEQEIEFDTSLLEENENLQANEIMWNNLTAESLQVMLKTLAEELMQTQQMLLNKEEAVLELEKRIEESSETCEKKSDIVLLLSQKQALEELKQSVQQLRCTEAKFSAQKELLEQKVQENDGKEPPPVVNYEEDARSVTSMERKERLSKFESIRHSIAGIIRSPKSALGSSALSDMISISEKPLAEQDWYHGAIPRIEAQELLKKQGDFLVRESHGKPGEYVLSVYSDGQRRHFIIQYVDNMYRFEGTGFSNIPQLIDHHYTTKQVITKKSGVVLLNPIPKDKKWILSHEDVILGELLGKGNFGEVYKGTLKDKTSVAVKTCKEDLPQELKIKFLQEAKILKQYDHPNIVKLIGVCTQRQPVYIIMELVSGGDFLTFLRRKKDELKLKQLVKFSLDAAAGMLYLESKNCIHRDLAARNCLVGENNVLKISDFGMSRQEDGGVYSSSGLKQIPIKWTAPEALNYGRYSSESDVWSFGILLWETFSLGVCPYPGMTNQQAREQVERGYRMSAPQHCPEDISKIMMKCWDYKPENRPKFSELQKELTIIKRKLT
Serine/threonine-protein kinase pim-1 (Homo sapiens), sequence (P11309 whole entry, looked up): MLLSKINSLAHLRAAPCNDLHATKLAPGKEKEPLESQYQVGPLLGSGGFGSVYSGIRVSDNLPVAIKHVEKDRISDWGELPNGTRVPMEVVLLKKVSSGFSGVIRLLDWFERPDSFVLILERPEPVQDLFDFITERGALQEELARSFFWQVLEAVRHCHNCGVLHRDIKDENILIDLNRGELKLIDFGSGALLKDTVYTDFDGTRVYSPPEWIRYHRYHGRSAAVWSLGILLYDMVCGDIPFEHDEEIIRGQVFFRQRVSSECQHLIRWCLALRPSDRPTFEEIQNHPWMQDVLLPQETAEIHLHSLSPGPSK
Serine/threonine-protein kinase N2 (Homo sapiens), sequence (Q16513 whole entry, looked up): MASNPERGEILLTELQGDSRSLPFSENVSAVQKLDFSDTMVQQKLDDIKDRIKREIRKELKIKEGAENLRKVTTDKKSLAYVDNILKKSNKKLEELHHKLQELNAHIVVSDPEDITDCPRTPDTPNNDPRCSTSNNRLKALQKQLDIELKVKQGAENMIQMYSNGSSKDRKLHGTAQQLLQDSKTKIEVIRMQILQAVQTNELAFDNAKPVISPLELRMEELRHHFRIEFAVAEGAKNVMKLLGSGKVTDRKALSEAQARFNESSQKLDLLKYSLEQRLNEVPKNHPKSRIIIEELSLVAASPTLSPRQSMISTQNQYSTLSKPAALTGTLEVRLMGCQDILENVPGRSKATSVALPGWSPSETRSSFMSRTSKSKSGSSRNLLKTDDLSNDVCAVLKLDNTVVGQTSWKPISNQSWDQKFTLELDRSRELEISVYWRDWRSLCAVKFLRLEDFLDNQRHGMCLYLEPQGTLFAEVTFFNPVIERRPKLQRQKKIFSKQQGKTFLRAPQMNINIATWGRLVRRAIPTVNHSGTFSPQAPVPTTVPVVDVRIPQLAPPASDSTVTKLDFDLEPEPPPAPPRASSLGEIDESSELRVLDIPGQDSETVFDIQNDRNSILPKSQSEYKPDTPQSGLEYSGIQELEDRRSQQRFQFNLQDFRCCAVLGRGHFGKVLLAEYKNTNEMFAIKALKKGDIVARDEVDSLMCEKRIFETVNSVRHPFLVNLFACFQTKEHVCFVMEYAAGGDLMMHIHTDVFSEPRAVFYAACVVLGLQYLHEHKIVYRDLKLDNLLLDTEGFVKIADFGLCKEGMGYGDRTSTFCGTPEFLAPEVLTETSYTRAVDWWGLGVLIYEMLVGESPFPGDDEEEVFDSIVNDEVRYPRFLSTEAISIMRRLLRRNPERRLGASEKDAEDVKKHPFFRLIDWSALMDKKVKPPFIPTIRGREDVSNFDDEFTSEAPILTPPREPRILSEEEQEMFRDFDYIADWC
RAC-gamma serine/threonine-protein kinase (Homo sapiens), sequence (Q9Y243 whole entry, looked up): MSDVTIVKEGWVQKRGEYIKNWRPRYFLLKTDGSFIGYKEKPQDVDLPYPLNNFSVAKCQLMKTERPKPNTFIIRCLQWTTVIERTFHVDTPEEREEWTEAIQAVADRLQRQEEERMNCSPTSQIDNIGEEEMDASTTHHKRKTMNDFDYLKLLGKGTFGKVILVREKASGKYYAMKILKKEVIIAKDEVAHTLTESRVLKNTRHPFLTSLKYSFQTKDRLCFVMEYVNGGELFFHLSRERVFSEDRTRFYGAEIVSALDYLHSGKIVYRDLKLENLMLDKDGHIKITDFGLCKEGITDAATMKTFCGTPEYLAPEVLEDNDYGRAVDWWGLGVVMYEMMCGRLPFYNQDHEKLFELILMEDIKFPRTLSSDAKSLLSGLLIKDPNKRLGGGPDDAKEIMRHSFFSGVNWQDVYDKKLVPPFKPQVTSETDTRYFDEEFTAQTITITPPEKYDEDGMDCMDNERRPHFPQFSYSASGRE

Cc1cc2nc(NCCCO)n(CC(=O)c3cc(C(C)(C)C)c(O)c(C(C)(C)C)c3)c2cc1C
percent of control binding [1]: 96% (inactive) | percent of control binding [2]: 100% (inactive) | percent of control binding [3]: 30% | percent of control binding [4]: 90% (inactive) | percent of control binding [5]: 100% (inactive) | percent of control binding [6]: 72% (inactive) | percent of control binding [7]: 87% (inactive) | percent of control binding [8]: 100% (inactive) | percent of control binding [9]: 59% (inactive) | percent of control binding [10]: 83% (inactive) | percent of control binding [11]: 100% (inactive) | percent of control binding [12]: 100% (inactive) | percent of control binding [13]: 100% (inactive) | percent of control binding [14]: 99% (inactive) | percent of control binding [15]: 82% (inactive) | percent of control binding [16]: 100% (inactive) | percent of control binding [17]: 98% (inactive) | percent of control binding [18]: 100% (inactive) | percent of control binding [19]: 96% (inactive) | percent of control binding [20]: 100% (inactive) | percent of control binding [21]: 100% (inactive) | percent of control binding [22]: 100% (inactive) | percent of control binding [23]: 95% (inactive) | percent of control binding [24]: 77% (inactive) | percent of control binding [25]: 88% (inactive) | percent of control binding [26]: 98% (inactive) | percent of control binding [27]: 90% (inactive) | percent of control binding [28]: 91% (inactive) | percent of control binding [29]: 100% (inactive) | percent of control binding [30]: 90% (inactive) | percent of control binding [31]: 100% (inactive) | percent of control binding [32]: 100% (inactive) | percent of control binding [33]: 97% (inactive) | percent of control binding [34]: 99% (inactive) | percent of control binding [35]: 100% (inactive)
